Here are results for 15 compounds from patent US20240092758A1, “IMIDAZOLO INDAZOLE COMPOUNDS AS JAK INHIBITORS” (Theravance Biopharma R&D IP, LLC, priority 2021, published 2024).

One assay addresses JAK1 (Homo sapiens (Human), UniProt P23458). Description: Biochemical JAK kinase assay (LanthaScreen), JAK1. The settings on record: for Ki: read-out: JAK1 pKi (converted). In a few lines: (§1)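 LanthaScreen format: phospho-STAT1 (pTyr701) detected with 2 nM Tb antibody after 10 mM EDTA quench. Kinase step used Km-level ATP and 200 nM STAT1 peptide, 1 h at ambient after 1 h pre-incubation. Inhibition fitted to IC50, reported as pKi.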
In general terms: In TR-FRET formats the signal depends on donor and acceptor labels being close together.

The next assay concerns the target JAK2 (Homo sapiens (Human), UniProt O60674). Description: Biochemical JAK kinase assay (LanthaScreen), JAK2. The settings on record: for Ki: read-out: JAK2 pKi (converted). In a few lines: as §1
Assay [1] concerns IL-13 induced STAT6 phosphorylation in BEAS-2B human lung epithelial cells. Briefly: Cellular JAKI potency assay (BEAS-2B). It counts as cell-based. The settings on record: Homo sapiens, BEAS-2B, BEAS-2B cells, read-out: BEAS2B pIC50 (converted). In short, it runs like this: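 AlphaLISA SureFire detection of Tyr641 pSTAT6 in lysates gave IC50s (4-parameter fit, expressed as pIC50). Cells: human BEAS-2B, exposed 1 h at 37 °C to compound dose series at 0.1% DMSO, then 30 min to IL-13 added at 80 ng/mL in HEPES-buffered HBSS with BSA.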

JAK1, sequence (P23458 whole entry): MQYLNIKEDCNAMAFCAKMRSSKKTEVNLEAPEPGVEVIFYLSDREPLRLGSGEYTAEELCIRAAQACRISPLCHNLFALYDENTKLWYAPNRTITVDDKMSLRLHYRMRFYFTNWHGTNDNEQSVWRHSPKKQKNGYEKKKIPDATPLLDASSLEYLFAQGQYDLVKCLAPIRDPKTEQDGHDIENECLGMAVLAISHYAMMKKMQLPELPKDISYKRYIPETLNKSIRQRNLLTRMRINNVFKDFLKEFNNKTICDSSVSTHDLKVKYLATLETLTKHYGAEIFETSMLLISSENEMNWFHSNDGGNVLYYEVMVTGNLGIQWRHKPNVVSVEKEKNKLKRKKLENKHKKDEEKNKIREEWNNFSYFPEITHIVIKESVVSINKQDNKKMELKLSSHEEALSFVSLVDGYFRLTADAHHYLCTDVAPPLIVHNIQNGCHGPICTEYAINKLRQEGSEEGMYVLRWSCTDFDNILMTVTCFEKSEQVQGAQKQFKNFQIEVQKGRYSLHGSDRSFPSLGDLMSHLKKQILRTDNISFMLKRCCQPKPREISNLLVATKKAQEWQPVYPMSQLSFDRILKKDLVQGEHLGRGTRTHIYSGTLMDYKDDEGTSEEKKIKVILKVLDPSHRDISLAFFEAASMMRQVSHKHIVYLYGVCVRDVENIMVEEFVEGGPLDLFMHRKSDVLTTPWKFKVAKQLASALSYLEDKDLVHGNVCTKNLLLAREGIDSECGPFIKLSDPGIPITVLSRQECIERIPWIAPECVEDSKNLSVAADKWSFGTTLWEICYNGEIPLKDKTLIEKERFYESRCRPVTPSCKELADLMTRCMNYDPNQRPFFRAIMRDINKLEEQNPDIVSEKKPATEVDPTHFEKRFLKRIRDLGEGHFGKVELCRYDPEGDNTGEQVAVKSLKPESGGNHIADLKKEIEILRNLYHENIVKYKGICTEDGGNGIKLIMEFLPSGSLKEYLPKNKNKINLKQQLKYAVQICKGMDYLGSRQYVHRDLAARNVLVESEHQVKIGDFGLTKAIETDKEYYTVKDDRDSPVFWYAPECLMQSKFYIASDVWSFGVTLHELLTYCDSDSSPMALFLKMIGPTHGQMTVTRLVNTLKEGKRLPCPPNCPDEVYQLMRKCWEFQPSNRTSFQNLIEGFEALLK
JAK2, sequence (O60674 whole entry): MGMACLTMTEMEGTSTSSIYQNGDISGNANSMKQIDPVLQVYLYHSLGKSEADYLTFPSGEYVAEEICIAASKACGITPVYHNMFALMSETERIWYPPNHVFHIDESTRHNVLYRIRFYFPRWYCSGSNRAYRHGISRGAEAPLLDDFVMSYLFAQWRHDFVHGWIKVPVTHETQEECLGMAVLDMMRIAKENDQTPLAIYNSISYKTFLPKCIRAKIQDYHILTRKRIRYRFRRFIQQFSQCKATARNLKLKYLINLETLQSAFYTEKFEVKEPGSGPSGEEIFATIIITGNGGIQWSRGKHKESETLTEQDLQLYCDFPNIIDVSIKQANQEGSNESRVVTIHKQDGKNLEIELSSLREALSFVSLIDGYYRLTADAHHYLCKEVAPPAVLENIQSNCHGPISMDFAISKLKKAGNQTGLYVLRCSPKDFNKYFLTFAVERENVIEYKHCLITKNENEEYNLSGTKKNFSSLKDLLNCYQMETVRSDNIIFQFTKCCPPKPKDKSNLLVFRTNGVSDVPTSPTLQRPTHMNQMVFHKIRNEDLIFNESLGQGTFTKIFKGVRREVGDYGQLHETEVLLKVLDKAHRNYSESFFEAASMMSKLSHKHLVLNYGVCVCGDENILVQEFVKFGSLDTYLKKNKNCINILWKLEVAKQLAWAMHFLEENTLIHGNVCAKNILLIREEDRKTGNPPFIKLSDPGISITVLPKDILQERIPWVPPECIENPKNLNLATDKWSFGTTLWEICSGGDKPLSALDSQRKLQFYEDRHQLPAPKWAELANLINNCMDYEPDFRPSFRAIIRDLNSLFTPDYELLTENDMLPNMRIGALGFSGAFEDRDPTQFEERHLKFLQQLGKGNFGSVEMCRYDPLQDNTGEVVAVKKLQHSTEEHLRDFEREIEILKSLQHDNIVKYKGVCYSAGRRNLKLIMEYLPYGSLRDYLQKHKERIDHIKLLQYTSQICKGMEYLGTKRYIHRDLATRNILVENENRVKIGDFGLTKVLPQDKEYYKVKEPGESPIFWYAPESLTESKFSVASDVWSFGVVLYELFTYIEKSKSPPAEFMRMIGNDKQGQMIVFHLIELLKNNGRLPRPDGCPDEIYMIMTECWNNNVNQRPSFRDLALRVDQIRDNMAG

For `CCc1cc(O)ccc1-c1ccc2c(-c3nc(C4=C[C@@H](C)NC4)c[nH]3)n[nH]c2c1F` [Example 292], the Ki at JAK1 and on JAK2 was 0.1 to 1 nM each time. Further, the IC50 in assay [1] was 3.16 to 10 nM.
Regarding `CCc1cc(O)ccc1-c1ccc2c(-c3nc(C4=C(C(=O)OC)CNCC4)c[nH]3)n[nH]c2c1F` [Example 294], the Ki on JAK1 is 0.1 to 1 nM. Besides, the “JAK2 pKi” value on JAK2 is recorded as “A (A represents a pKi value ≥10 (Ki≤0.1 nM))”. Further, the IC50 in assay [1] is 3.16 to 10 nM.
For `CCc1cc(O)ccc1-c1ccc2c(-c3nc(C4=C(C(=O)OC)CCNC4)c[nH]3)n[nH]c2c1F` [Example 295], in that order: 0.1 to 1 nM, “A (A represents a pKi value ≥10 (Ki≤0.1 nM))” and 3.16 to 10 nM.
`CCc1cc(O)ccc1-c1ccc2c(-c3nc(C4=CCN(Cc5cn[nH]c5)C4)c[nH]3)n[nH]c2c1` [Example 296]: at JAK1, the “JAK1 pKi” value is on record as “A (A represents a pKi value ≥10 (Ki≤0.1 nM))”. Moreover, the “JAK2 pKi” value at JAK2 is reported as “A (A represents a pKi value ≥10 (Ki≤0.1 nM))”. Besides, in assay [1], the IC50 was 10 to 31.6 nM.
With `CCc1cc(O)ccc1-c1ccc2c(-c3nc(C4=CCN(CCCO)C4)c[nH]3)n[nH]c2c1` [Example 297], the Ki on JAK1 and at JAK2 was 0.1 to 1 nM throughout. For the same compound, the IC50 in assay [1] was 10 to 31.6 nM.
Consider `CCOC(=O)C1=C(c2c[nH]c(-c3n[nH]c4c(F)c(-c5ccc(O)cc5CC)ccc34)n2)CNCC1` [Example 301], for which, on JAK1, the “JAK1 pKi” value is given as “A (A represents a pKi value ≥10 (Ki≤0.1 nM))”. The Ki on JAK2 is 0.1 to 1 nM. Besides, in assay [1], the IC50 is 10 to 31.6 nM.
For `CCOC(=O)C1=C(c2c[nH]c(-c3n[nH]c4cc(-c5ccc(O)cc5CC)ccc34)n2)CNCC1` [Example 302], in that order: “A (A represents a pKi value ≥10 (Ki≤0.1 nM))”, 0.1 to 1 nM and 10 to 31.6 nM.
On to `CCc1cc(O)ccc1-c1ccc2c(-c3nc(C4=CCN(C5CCC5)C4)c[nH]3)n[nH]c2c1F` [Example 303], for which the “JAK1 pKi” value at JAK1 is listed as “A (A represents a pKi value ≥10 (Ki≤0.1 nM))”. In addition, the “JAK2 pKi” value at JAK2 was “A (A represents a pKi value ≥10 (Ki≤0.1 nM))”. Moreover, the IC50 in assay [1] was 10 to 31.6 nM.
As to `CCc1cc(O)ccc1-c1ccc2c(-c3nc(C4=CCN(C5CCC5)[C@H]4CO)c[nH]3)n[nH]c2c1F` [Example 304], on JAK1, the “JAK1 pKi” value is recorded as “A (A represents a pKi value ≥10 (Ki≤0.1 nM))”. Moreover, the “JAK2 pKi” value at JAK2 is on record as “A (A represents a pKi value ≥10 (Ki≤0.1 nM))”. Also, in assay [1], the IC50 is 10 to 31.6 nM.
Consider `CCc1cc(O)ccc1-c1ccc2c(-c3nc(C4=CCC(C)(C)NC4)c[nH]3)n[nH]c2c1F` [Example 306], for which the Ki at JAK1 and on JAK2 was 0.1 to 1 nM in each case. In addition, in assay [1], the IC50 was 10 to 31.6 nM.
For the compound `CCc1cc(O)ccc1-c1ccc2c(-c3nc(C4=CCN(CCC5(O)CCC5)C4)c[nH]3)n[nH]c2c1F` [Example 308], on JAK1, the Ki was 0.1 to 1 nM. Besides, the “JAK2 pKi” value at JAK2 is reported as “A (A represents a pKi value ≥10 (Ki≤0.1 nM))”. The IC50 in assay [1] was 10 to 31.6 nM.
As to `CCc1cc(O)ccc1-c1ccc2c(-c3nc(C4=C[C@H](CC(=O)OC(C)C)NC4)c[nH]3)n[nH]c2c1F` [Example 309], the Ki at JAK1 and at JAK2 was 0.1 to 1 nM throughout. Moreover, in assay [1], the IC50 is 10 to 31.6 nM.
With `CCc1cc(O)ccc1-c1ccc2c(-c3nc(C4=C[C@H]([C@H](C)O)NC4)c[nH]3)n[nH]c2c1F` [Example 310], the Ki at JAK1 is 0.1 to 1 nM. Besides, the “JAK2 pKi” value at JAK2 is listed as “A (A represents a pKi value ≥10 (Ki≤0.1 nM))”. Moreover, the IC50 in assay [1] was 10 to 31.6 nM.
Consider `CCc1cc(O)ccc1-c1ccc2c(-c3nc(C4=CCN[C@@H](C)C4)c[nH]3)n[nH]c2c1F` [Example 311], for which the Ki on JAK1 and at JAK2 was 0.1 to 1 nM throughout. In assay [1], the IC50 was 10 to 31.6 nM.
As for `CCc1cc(O)ccc1-c1ccc2c(-c3nc(C4=CCNC(CC)C4)c[nH]3)n[nH]c2c1` (stereo not drawn) [Example 312], the Ki at JAK1 and on JAK2 was 0.1 to 1 nM in each case. The IC50 in assay [1] is 10 to 31.6 nM.
